{"source": "patent US12636352B2", "about": "“Functionalized enzyme-powered nanomotors” (FUNDACIO INSTITUT DE BIOENGINYERIA DE CATALUNYA, priority 2018, dated 2026)", "key": {"[1]": {"system": "Human urinary bladder transitional cell papilloma RT4 cells", "procedure": "3D Cell Culture: Human urinary bladder transitional cell papilloma RT4 cells were cultured in McCoy's 5A (Modified) Medium, supplemented with FBS (10%) and penicillin-streptomycin solution (1%), in a 37° C. and 5% CO2 atmosphere. The cells were split every 4 days at a 1:2 ratio. To obtain 3D RT4 cell cultures, 8-well ibidi dishes were pre-coated with 23 μL of Matrigel™ (5 mg/mL) and incubated at 37° C. for 30 minutes, allowing the gel to form. Next, 30 μL of a suspension of RT4 cells at a density of 5×10^6 cells/mL was spread evenly in each well and the dishes were incubated for 30 minutes at 37° C. Finally, 150 μL of RT4 McCoy's medium containing 10% of Matrigel™ was added. The cultures were allowed to grow for 7 days before the experiments, changing the medium every 2 days.\nCytotoxicity Assays: The viability of RT4 3D cultures was quantified using the Alamar Blue assay and visualized using the LIVE/DEAD viability kit following manufacturer's instructions. […] After, the cultures were washed with medium, kept resting for 24 hours and viability was investigated according to manufacturer's instructions.\nThe spheroids were obtained by seeding RT4 cells in dishes coated with Matrigel™ which resembles the extracellular matrix and provides a 3D environment for cell growth. Then, the cultures were allowed to proliferate for 7 days and spheroid growth was monitored every day. […] After that, the cultures were washed with medium and cell viability and proliferation was assessed using the Alamar Blue assay.\nIt was further investigated the viability of the spheroids when exposed to the nanomotors (MSNP-Ur/PEG), under a range of concentrations of urea and at different incubation periods. The spheroids were incubated with 12.5 μg/mL of bare nanomotors or antibody-modified nanomotors at 0 mM, 25 mM, 30 mM and 40 mM of urea, for 1, 2 and 4 hours. Next, the cultures were thoroughly washed with medium to remove nanomotors and uncatalyzed urea and kept for 24 hours before analysis. The effect of the nanomotors on bladder cancer spheroids' viability was visualized using the LIVE/DEAD® viability kit and quantified using the Alamar Blue assay (FIG. 3)."}, "[2]": {"assay": "FRET/Cy3 imaging of DNA-switch micromotors by confocal laser scanning microscopy", "conditions": "micromotors in PBS, pH 5 or pH 9", "experimental": "To test the functionality of the switch once conjugated to the micromotors, FRET efficiency was monitored through a Leica-SP5 confocal laser scanning microscope (CSLM) equipped with a 63× oil immersion objective (FIG. 6B). For this, micromotors were suspended in PBS either at pH 5 or pH 9 and placed in a 8-well glass bottom dish for their analysis under CSLM. The emission of the donor (Cy3) was recorded using a 564 nm diode laser. The FRET image was obtained by exciting the Cy3 fluorophore and detecting the acceptor (Cy5) emission. Using a custom-made ImageJ plug-in, quantification of the FRET efficiency was achieved by calculating the FRET/Cy3 ratio.\nThe capability of micromotors to simultaneously record local pH changes produced while they are self-propelling was assessed by combining both optical tracking and FRET imaging using CSLM, where 25 s videos were recorded at 3FPS. In the absence of fuel, a mean FRET/Cy3 ratio of 1.8±0.09 (mean±standard error of the mean) was observed.\nTo gain insights into the instantaneous pH change around the micromotors from the initial moment of the reaction, micromotors were immobilized onto a glass surface using APTES as a coating agent to provide positive surface charges and stabilize the electrostatic interactions with the negatively charged micromotors. […]"}, "[3]": {"assay": "Fluorescence (ratiometric FRET) pH titration of DNA switch in solution", "conditions": "50 nM DNA switch", "experimental": "Fluorescence measurements were carried out on a Cary Eclipse Fluorimeter (Varian), setting excitation wavelength to λex=530 nm (slitex=5 nm) and acquisition between 540 and 700 nm (slitem=5 nm) using quartz cuvettes of reduced volume (100 μL). All measurements were performed at T=25° C. in 10 mM HEPES. Switches were first diluted in HEPES 10 mM at the concentration of 1 μM. […]\nThe ratiometric FRET has been calculated as following:\nWhere FCyS is the maximum fluorescence emission of Cy5 (λem=670 nm) and FCy3 is the maximum fluorescence emission of Cy3 (λem=570 nm). The pH titration curves were obtained by plotting Rat. FRET vs hydronium ions concentration, and fitting the data with the following Langmuir-type equation: […]\nWhere Rat. FRETTRIPLEX and Rat. FRETDUPLEX represent the FRET signal of the switch in the triplex state (closed) and duplex state (open), respectively and where [H^+] represents the total concentration of hydrogen ions and\nAs a note, fluorophores employed here are not sensitive to pH in the range of pHs investigated (from pH 5.0 to pH 9.5) to avoid any interferences in the signal. It is important to note that this class of triplex-based switches show opening/closing kinetics sufficiently fast to allow the real time monitoring of pH variation (average time constant ˜100 ms)."}}, "note": "Like-named read-outs stand apart in the source and are kept apart here."}
{"molecule": "NC(N)=O", "note": "[Urea, urea]", "values": [{"measurement": "spheroid viability (biocompatibility)", "setting": "[1]", "value": "not affecting spheroid viability"}]}
{"molecule": "N", "note": "[ammonia]", "values": [{"measurement": "spheroid viability", "setting": "[1]; 20 mM ammonia", "value": "> 70", "unit": "%"}, {"measurement": "spheroid viability (biocompatibility)", "setting": "[1]; 24 hours incubation, range of concentrations", "value": "increased cytotoxic trend with increasing concentrations"}, {"measurement": "spheroid viability", "setting": "[1]; 24 hours, all ammonia concentrations tested", "value": "> 70", "unit": "%"}]}
{"molecule": "control switch: non-pH responsive hairpin DNA, SEQ ID NO: 3, Cy3/Cy5 labelled; tested conjugated to micromotors (DNA TCCTTGTCTGTCTGTCTGTCTGAACGTTTTTCGTTC; DNA, backbone not given here; further chemistry not fully specified)", "values": [{"measurement": "FRET/Cy3 emission of switch-modified micromotors at different pH", "setting": "[2]", "value": "no significant differences"}]}
{"molecule": "DNA switch: triplex-forming single stranded DNA, SEQ ID NO: 1, labelled with Cy3 and Cy5 (nucleic acid, DNA, backbone not given here; Cy3 and Cy5 labels, further chemistry not fully specified) DNA: TCCTTGTCTGTCTGTCTGTCTTTTTTGAAGAAGGAATTTATTCCTTCTTCGTTTGCTTCTTCCTT", "values": [{"measurement": "FRET efficiency", "setting": "[3]; acidic pH values", "value": "high FRET efficiency"}, {"measurement": "FRET signal", "setting": "[3]; pH of the solution increased (pH 5.0 to 9.5)", "value": "gradual decrease"}]}
